Measurements reported in ChEMBL document CHEMBL3085710, “Pahangensin A and B, two new antibacterial diterpenes from the rhizomes of Alpinia pahangensis Ridley” (2013).
In brackets after ≈: the same amount, converted by molar mass.

Legend:
Bacillus cereus = assay: Antibacterial activity against Bacillus cereus Frankland and Frankland ATCC 11778 after overnight incubation by broth microdilution method; format: functional
Bacillus subtilis = assay: Antibacterial activity against Bacillus subtilis (Ehrenberg) Cohn ATCC 6051 after overnight incubation by broth microdilution method; format: functional
Staphylococcus aureus = assay: Antibacterial activity against Staphylococcus aureus Rosenbach ATCC 9144 after overnight incubation by broth microdilution method; format: functional
Salmonella typhimurium = assay: Antibacterial activity against Salmonella typhimurium (Loeffler) Castellani and Chalmers ATCC 14028 after overnight incubation by broth microdilution method; format: functional, Salmonella enterica subsp. enterica serovar Typhimurium; details: Salmonella enterica
Salmonella sp. = assay: Antibacterial activity against Salmonella sp. ATCC 700623 after overnight incubation by broth microdilution method; format: functional
Escherichia coli = assay: Antibacterial activity against Escherichia coli (Migula) Castellani and Chalmers ATCC 25922 after overnight incubation by broth microdilution method; format: functional

SMILES	MIC (Bacillus cereus)	MIC (Bacillus subtilis)	MIC (Staphylococcus aureus)	MIC (Salmonella typhimurium)	MIC (Salmonella sp.)	MIC (Escherichia coli)
C=C1CC[C@H]2C(C)(C)CCC[C@]2(C)[C@H]1C/C=C(/C=O)CC(=O)OC	52.1 µg/mL (≈ 157 µM)					
C=C1CC[C@H]2C(C)(C)CCC[C@]2(C)[C@H]1/C=C/C1=C(C2=C(/C=C/[C@H]3C(=C)CC[C@H]4C(C)(C)CCC[C@]34C)COC2=O)C(=O)OC1	31.2 µg/mL (≈ 52.2 µM)	31.2 µg/mL (≈ 52.2 µM)	52.1 µg/mL (≈ 87 µM)			
O=C(N[C@H](CO)[C@H](O)c1ccc([N+](=O)[O-])cc1)C(Cl)Cl [CHLORAMPHENICOL]	15.6 µg/mL (≈ 48.4 µM)	15.6 µg/mL (≈ 48.4 µM)	31.2 µg/mL (≈ 96.7 µM)	15.6 µg/mL (≈ 48.3 µM)	15.6 µg/mL (≈ 48.4 µM)	7.81 µg/mL (≈ 24.2 µM)
CC1(C)S[C@@H]2[C@H](NC(=O)Cc3ccccc3)C(=O)N2[C@H]1C(=O)O [PENICILLIN G]	62.5 µg/mL (≈ 187 µM)	15.6 µg/mL (≈ 46.7 µM)	3.91 µg/mL (≈ 11.7 µM)	125 µg/mL (≈ 374 µM)	31.2 µg/mL (≈ 93.5 µM)	125 µg/mL (≈ 374 µM)
CN[C@@H]1[C@H](O[C@H]2[C@H](O[C@H]3[C@H](O)[C@@H](O)[C@H](N=C(N)N)[C@@H](O)[C@@H]3N=C(N)N)O[C@@H](C)[C@]2(O)C=O)O[C@@H](CO)[C@H](O)[C@H]1O [STREPTOMYCIN]	15.6 µg/mL (≈ 26.9 µM)	31.2 µg/mL (≈ 53.7 µM)	31.2 µg/mL (≈ 53.7 µM)	62.5 µg/mL (≈ 107 µM)	15.6 µg/mL (≈ 26.9 µM)	15.6 µg/mL (≈ 26.9 µM)
